Earlier results as cited in US6521209B1, “Bifunctional detection agents” (California Institute of Technology, priority 1996, dated 2003).

Details: for stability constant (K), formation constant, logK: Gd(III) complex

O=C([O-])CN(CCN(CC(=O)[O-])CC(=O)O)CCN(CC(=O)[O-])CC(=O)O.[Gd+3] [Gd(DTPA)]
stability constant (K), formation constant, logK: 22.4

O=C([O-])CN1CCN(CC(=O)[O-])CCN(CC(=O)O)CCN(CC(=O)[O-])CC1.[Gd+3] [Gd-DOTA]
stability constant (K), formation constant, logK: 28.5 | dissociation kinetics (at physiological pH): very slow dissociation kinetics
